Results: US8753875B2, “Compositions and means for diagnosing microbial infections” (priority 2007, dated 2014)
Where two headings read alike, the source gives them in different places.

How the values were obtained:
Enterobacter = test system: Enterobacter; design: key: Susceptible = S; Resistant = R; conditions: cited from earlier work
P. vulgaris [1] = test system: P. vulgaris; design: key: Susceptible = S; Resistant = R; conditions: cited from earlier work
Pseud. Aeruginosa = test system: Pseud. Aeruginosa; design: key: Susceptible = S; Resistant = R; conditions: cited from earlier work
Candida sp. = test system: Candida sp.; design: key: Susceptible = S; Resistant = R; conditions: cited from earlier work
Citrobacter = test system: Citrobacter; design: key: Susceptible = S; Resistant = R; conditions: cited from earlier work
E. faecalis [2] = test system: E. faecalis; design: key: Susceptible = S; Resistant = R; conditions: cited from earlier work
E. coli [3] = experiment: Growth of E. coli in antibiotic compartments of the platform (FIG. 3); format: cell-based; conditions: illustrated E. coli of FIG. 3
Text: The photos show growth of E. coli at different quantities of bacteria/ml urine.

E. coli [4] = conditions: cited from earlier work
E. faecalis [5] = experiment: Growth on Flexicult plate, susceptibility/resistance to the five antibiotics (FIG. 4, Table A); format: cell-based
Text: (§1) The kit was developed for urine culture in the primary health care setting. It is designed preferably as a nine cm Petri dish divided into six compartments: One larger compartment for quantitative analysis and five smaller compartments for susceptibility testing. The agar in each small compartment contains one of five antimicrobials (for Denmark and Scandinavia preferably: trimethoprim, sulfamethizole, ampicillin, nitrofurantoin and mecillinam (amdinocillin)) at a concentration adjusted to the breakpoint, such that growth in these compartments indicates resistance, and no growth indicates susceptibility. The Petri dish preferably has higher sides, approximately 2.48 cm, than the usual dish, i.e. ca. 1.48 cm. This allows a larger amount, maximum 100 ml, of urine to be poured onto the dish for inoculation.
(§2) Reading the susceptibility of the bacterial growth: Each bacterium (if more than one) is read individually: The growth in each of the antibiotic fields is compared with the growth on the control agar. […] If there is no growth (or substantially less than the control agar), then the bacterium is considered to be susceptible to the antibiotic. […] When nitrofurantoin and mecillinam are used as antibiotics, a few single colonies may be seen of the same type as the bacterium on the control agar: These are not considered to be resistant mutants but “persisters,” i.e. if retested they will appear susceptible. This is commonly seen also by disc diffusion especially for mecillinam.

E. coli [6] = experiment: as above; format: cell-based
Text: as §1, §2

Klebsiella spp. = experiment: as above; format: cell-based
Text: as §1, §2

Enterobacter spp = experiment: as above; format: cell-based
Text: as §1, §2

E. faecium [7] = experiment: as above; format: cell-based
Text: as §1, §2

Citrobacter spp. = experiment: as above; format: cell-based
Text: as §1, §2

S. saprophyticus [8] = experiment: as above; format: cell-based
Text: as §1, §2

P. aureginosa = experiment: as above; format: cell-based
Text: as §1, §2

Morganella spp. = experiment: as above; format: cell-based
Text: as §1, §2

Candida spp. = experiment: as above; format: cell-based
Text: as §1, §2

P. vulgaris [9] = experiment: as above; format: cell-based
Text: as §1, §2

Proteus mirabilis = experiment: as above; format: cell-based
Text: as §1, §2

S. agalactiae = test system: S. agalactiae; design: key: Susceptible = S; Resistant = R; conditions: cited from earlier work
Klebsiella = test system: Klebsiella; design: key: Susceptible = S; Resistant = R; conditions: cited from earlier work
E. faecium [10] = test system: E. faecium; design: key: Susceptible = S; Resistant = R; conditions: cited from earlier work
P. mirabilis = test system: P. mirabilis; design: key: Susceptible = S; Resistant = R; conditions: cited from earlier work
S. saprophyticus [11] = test system: S. saprophyticus; design: key: Susceptible = S; Resistant = R; conditions: cited from earlier work
Morganella = test system: Morganella; design: key: Susceptible = S; Resistant = R; conditions: cited from earlier work
E. coli [12] = test system: E. coli; design: key: Susceptible = S; Resistant = R; conditions: cited from earlier work
E. coli [13] = conditions: 1142 E. coli outpatient urinary isolates, USA and Canada; cited from earlier work

COc1cc(Cc2cnc(N)nc2N)cc(OC)c1OC [Trimethoprim, S-(3,4,5-trimethoxybenzyl)pyrimidine-2,4-diamine]
Normal susceptibility/resistance (Enterobacter): S
Normal susceptibility/resistance (P. vulgaris [1]): S
Normal susceptibility/resistance (Pseud. Aeruginosa): R
Normal susceptibility/resistance (Candida sp.): R
Normal susceptibility/resistance (Citrobacter): S
Normal susceptibility/resistance (E. faecalis [2]): S
resistant or susceptible (growth in antibiotic compartment) (E. coli [3]): susceptible
Antimicrobial resistance of E. coli (resistance in percent) (E. coli [4]; Austria, n 126): 9.5%
Antimicrobial resistance of E. coli (resistance in percent) (E. coli [4]; Belgium, n 137): 13.9%
Antimicrobial resistance of E. coli (resistance in percent) (E. coli [4]; Canada, n 166): 10.8%
Antimicrobial resistance of E. coli (resistance in percent) (E. coli [4]; Denmark, n 85): 10.6%
Antimicrobial resistance of E. coli (resistance in percent) (E. coli [4]; Finland, n 182): 5.5%
Antimicrobial resistance of E. coli (resistance in percent) (E. coli [4]; France, n 199): 15.6%
Antimicrobial resistance of E. coli (resistance in percent) (E. coli [4]; Germany, n 138): 22.5%
Antimicrobial resistance of E. coli (resistance in percent) (E. coli [4]; Greece, n 132): 13.6%
Antimicrobial resistance of E. coli (resistance in percent) (E. coli [4]; Ireland, n 154): 22.1%
Antimicrobial resistance of E. coli (resistance in percent) (E. coli [4]; Luxembourg, n 24): 16.7%
Antimicrobial resistance of E. coli (resistance in percent) (E. coli [4]; Norway, n 168): 13.1%
Antimicrobial resistance of E. coli (resistance in percent) (E. coli [4]; Portugal, n 86): 26.7%
Antimicrobial resistance of E. coli (resistance in percent) (E. coli [4]; Spain, n 191): 25.1%
Antimicrobial resistance of E. coli (resistance in percent) (E. coli [4]; Sweden, n 193): 8.8%
Antimicrobial resistance of E. coli (resistance in percent) (E. coli [4]; Switzerland, n 122): 18.9%
Antimicrobial resistance of E. coli (resistance in percent) (E. coli [4]; The Netherlands, n 195): 12.3%
Antimicrobial resistance of E. coli (resistance in percent) (E. coli [4]; Total, n 2478): 14.8%
Antimicrobial resistance of E. coli (resistance in percent) (E. coli [4]; United Kingdom, n 180): 13.3%
Susceptibility = S or Resistance = R (E. faecalis [5]): S
Susceptibility = S or Resistance = R (E. coli [6]): S
Susceptibility = S or Resistance = R (Klebsiella spp.): S
Susceptibility = S or Resistance = R (Enterobacter spp): S
Susceptibility = S or Resistance = R (E. faecium [7]): S
Susceptibility = S or Resistance = R (Citrobacter spp.): S
Susceptibility = S or Resistance = R (S. saprophyticus [8]): S
Susceptibility = S or Resistance = R (P. aureginosa): R
Susceptibility = S or Resistance = R (Morganella spp.): S
Susceptibility = S or Resistance = R (Candida spp.): R
Susceptibility = S or Resistance = R (P. vulgaris [9]): S
Susceptibility = S or Resistance = R (Proteus mirabilis): S
Normal susceptibility/resistance (S. agalactiae): S
Normal susceptibility/resistance (Klebsiella): S
Normal susceptibility/resistance (E. faecium [10]): S
Normal susceptibility/resistance (P. mirabilis): S
Normal susceptibility/resistance (S. saprophyticus [11]): S
Normal susceptibility/resistance (Morganella): S
Normal susceptibility/resistance (E. coli [12]): S

trimethoprim/sulfamethoxazole [SXT]
Antimicrobial resistance of E. coli (resistance in percent) (E. coli [4]; Austria, n 126): 9.5%
Antimicrobial resistance of E. coli (resistance in percent) (E. coli [4]; Belgium, n 137): 14.6%
Antimicrobial resistance of E. coli (resistance in percent) (E. coli [4]; Canada, n 166): 12.0%
Antimicrobial resistance of E. coli (resistance in percent) (E. coli [4]; Denmark, n 85): 8.2%
Antimicrobial resistance of E. coli (resistance in percent) (E. coli [4]; Finland, n 182): 4.9%
Antimicrobial resistance of E. coli (resistance in percent) (E. coli [4]; France, n 199): 15.1%
Antimicrobial resistance of E. coli (resistance in percent) (E. coli [4]; Germany, n 138): 21.0%
Antimicrobial resistance of E. coli (resistance in percent) (E. coli [4]; Greece, n 132): 11.4%
Antimicrobial resistance of E. coli (resistance in percent) (E. coli [4]; Ireland, n 154): 20.8%
Antimicrobial resistance of E. coli (resistance in percent) (E. coli [4]; Luxembourg, n 24): 16.7%
Antimicrobial resistance of E. coli (resistance in percent) (E. coli [4]; Norway, n 168): 11.3%
Antimicrobial resistance of E. coli (resistance in percent) (E. coli [4]; Portugal, n 86): 26.7%
Antimicrobial resistance of E. coli (resistance in percent) (E. coli [4]; Spain, n 191): 25.7%
Antimicrobial resistance of E. coli (resistance in percent) (E. coli [4]; Sweden, n 193): 8.3%
Antimicrobial resistance of E. coli (resistance in percent) (E. coli [4]; Switzerland, n 122): 18.9%
Antimicrobial resistance of E. coli (resistance in percent) (E. coli [4]; The Netherlands, n 195): 10.3%
Antimicrobial resistance of E. coli (resistance in percent) (E. coli [4]; Total, n 2478): 14.1%
Antimicrobial resistance of E. coli (resistance in percent) (E. coli [4]; United Kingdom, n 180): 12.2%
Overall resistance in E. coli (E. coli [13]): 21.3%

Cc1nnc(NS(=O)(=O)c2ccc(N)cc2)s1 [Sulfamethizole]
resistant or susceptible (growth in antibiotic compartment) (E. coli [3]): resistant
Susceptibility = S or Resistance = R (E. faecalis [5]): R
Susceptibility = S or Resistance = R (E. coli [6]): R
Susceptibility = S or Resistance = R (Klebsiella spp.): S
Susceptibility = S or Resistance = R (Enterobacter spp): R
Susceptibility = S or Resistance = R (E. faecium [7]): R
Susceptibility = S or Resistance = R (Citrobacter spp.): S
Susceptibility = S or Resistance = R (S. saprophyticus [8]): S
Susceptibility = S or Resistance = R (P. aureginosa): R
Susceptibility = S or Resistance = R (Morganella spp.): S
Susceptibility = S or Resistance = R (Candida spp.): R
Susceptibility = S or Resistance = R (P. vulgaris [9]): S
Susceptibility = S or Resistance = R (Proteus mirabilis): S

O=C(O)c1cn(C2CC2)c2cc(N3CCNCC3)c(F)cc2c1=O [CIP, 1-cyclopropyl-6-fluoro-4-oxo-7-piperazin-1-yl-quinoline-3-carboxylic acid]
Antimicrobial resistance of E. coli (resistance in percent) (E. coli [4]; Austria, n 126): 0%
Antimicrobial resistance of E. coli (resistance in percent) (E. coli [4]; Belgium, n 137): 2.9%
Antimicrobial resistance of E. coli (resistance in percent) (E. coli [4]; Canada, n 166): 0%
Antimicrobial resistance of E. coli (resistance in percent) (E. coli [4]; Denmark, n 85): 0%
Antimicrobial resistance of E. coli (resistance in percent) (E. coli [4]; Finland, n 182): 0.5%
Antimicrobial resistance of E. coli (resistance in percent) (E. coli [4]; France, n 199): 2.0%
Antimicrobial resistance of E. coli (resistance in percent) (E. coli [4]; Germany, n 138): 2.2%
Antimicrobial resistance of E. coli (resistance in percent) (E. coli [4]; Greece, n 132): 1.5%
Antimicrobial resistance of E. coli (resistance in percent) (E. coli [4]; Ireland, n 154): 0%
Antimicrobial resistance of E. coli (resistance in percent) (E. coli [4]; Luxembourg, n 24): 4.2%
Antimicrobial resistance of E. coli (resistance in percent) (E. coli [4]; Norway, n 168): 0%
Antimicrobial resistance of E. coli (resistance in percent) (E. coli [4]; Portugal, n 86): 5.8%
Antimicrobial resistance of E. coli (resistance in percent) (E. coli [4]; Spain, n 191): 14.7%
Antimicrobial resistance of E. coli (resistance in percent) (E. coli [4]; Sweden, n 193): 0%
Antimicrobial resistance of E. coli (resistance in percent) (E. coli [4]; Switzerland, n 122): 2.5%
Antimicrobial resistance of E. coli (resistance in percent) (E. coli [4]; The Netherlands, n 195): 2.1%
Antimicrobial resistance of E. coli (resistance in percent) (E. coli [4]; Total, n 2478): 2.3%
Antimicrobial resistance of E. coli (resistance in percent) (E. coli [4]; United Kingdom, n 180): 0.6%
Overall resistance in E. coli (E. coli [13]): 5.5%
